Here are results for three compounds from US20230042936A1, “PYRIDO[2,3-d]PYRIMIDIN-7(8H)-ONES AS CDK INHIBITORS” (PROSENESTAR LLC, priority 2020, published 2023).

Entries after “also recorded” stand apart in the source; their conditions may differ. Read-outs that look alike come from different tables or passages of the source.

In one data set the target is T1, AKT1 aa1-480 (Homo sapiens, UniProt P31749).
T1 construct: AKT1 aa1-480
As to the kind of experiment: Kinase profiling. The settings on record: 10 semi-logarithmic dilutions from 50 μM, singlicate. Type of data set: biochemical.

The next data set concerns the target CDK4/CycD1 (Homo sapiens, UniProt P11802). As to the kind of experiment: Kinase profiling. Format: biochemical. To be noted: 10 semi-logarithmic dilutions from 50 μM, singlicate.
In data set [1] the test system is H460 lung carcinoma cell line. As to the kind of experiment: Proliferation assay: determination of GI50. To be noted: Homo sapiens, NCI-H460; Table 3; 48 h; n = 2 independent experiments. Type of data set: cell-based, human. In a few lines:
(§1)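 Rb-proficient U87MG, MDA-MB-231 and H460 and Rb-deficient SW1783, grown in DMEM or RPMI-1640 with 10% FBS, treated for 48 h. Cells fixed in 4% PFA, Hoechst 33342-stained and counted by high-content imaging (20×, 30 fields/well); GI50 taken as absolute IC50 from dose-response fit.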

In data set [2] the test system is MCF10 non-transformed mammary epithelial cell line. As to the kind of experiment: Proliferation assay: determination of GI50. Type of data set: cell-based, human. The settings on record: Homo sapiens, MCF10; Table 3; 48 h; n = 2 independent experiments.
Data set [3] has as its system MDA-MB-231 breast carcinoma cell line. As to the kind of experiment: Proliferation assay: determination of GI50. Format: cell-based, human. The settings on record: Homo sapiens, MDA-MB-231. In a few lines:
as §1

In data set [4] the test system is U87MG glioblastoma cell line. Briefly: Proliferation assay: determination of GI50. The settings on record: Homo sapiens, U-87 MG. Type of data set: cell-based, human. Put shortly:
as §1

The nature of data set [5]: Kinetic solubility (pH 7.4). Type of data set: physicochemical. The settings on record: pH 7.4, aqueous buffer, kinetic from dmso stock.
Data set [6] in a line: Metabolic stability in microsomes. Format: in vitro ADME. To be noted: human, 60-90 min test; for microsomal CLint: read-out: Metabolic stability, Human microsomes: Clearance; for half-life: read-out: Metabolic stability, Human microsomes: t1/2.
Data set [7] in a line: Metabolic stability in hepatocytes. The settings on record: mouse, 60-90 min test; for hepatocyte CLint: read-out: Metabolic stability, Mouse heptocytes: Clearance; for half-life: read-out: Metabolic stability, Mouse heptocytes: t1/2. Type of data set: in vitro ADME.
Data set [8] in a line: Permeability Caco-2 cells. Format: in vitro ADME. To be noted: human, Caco-2. A general note: Caco-2 cells form a polarised layer with tight junctions and transporters.
In data set [9] the target is panel of 27 kinases (CDK family members). As to the kind of experiment: Kinase profiling, results in words. Format: biochemical. To be noted: from Table 1.
The test system of data set [10] is pRB-wild-type and pRB-deficient glioblastoma cells (U87MG, SW1783). As to the kind of experiment: GI50 compared in pRB-wild-type and pRB-deficient cells. To be noted: comparison of GI50, Table 4. Type of data set: cell-based, human. As for the experimental part:
[…]. Cell counts were determined by the Opera software (Perkin Elmer) and data were further processed with SPSS software. GI50 was calculated by estimating the absolute IC50 using dose-response inhibition tool in Prism6 (Graphpad Software Inc.).
CDK4/6 kinases drive cell cycle progression by phosphorylating the retinoblastoma protein (pRB), thus, releasing its repressive activity on transcription. Accordingly, CDK4/6 specific inhibitors are inefficient in pRB-deficient cells, as cell cycle transcription is induced with independence of CDK4/6 activity. The subject compounds were therefore evaluated to what extent depend on the presence of a functional pRB. Two pairs of human cancer cell lines representing pRB-wild-type and pRB-deficient breast cancer and glioblastoma were tested. […].

Data set [11] concerns MDA-MB-231-derived xenografts. Briefly: Tumor xenografts. Type of data set: in vivo, Athymic nude mice. To be noted: 100 mg/Kg intraperitoneally twice per week, two weeks; for phospho-RB levels in the xenografts: FIG. 9A; for tumor weight / tumor growth: vs DMSO; for tumor weight: FIG. 8A; for tumor growth: FIG. 8B. As for the experimental part:
For histological analysis, mice tissues and human xenografts were fixed in 10%-buffered formalin (Sigma) and embedded in paraffin wax. Sections of 3- or 5-μm thickness were stained with haematoxylin and eosin. Additional immunohistochemical examination was performed using a specific antibody against phospho-Rb (Ser807/811; Cell Signaling) or Ki67 (DAKO).
DMSO, PS004, PS006 and PS009 were diluted in sesame oil and administered intraperitoneally twice per week during two weeks at 100 mg/Kg. […] Tumor growth was monitored using caliper measurements and tumor size was estimated using the following formula: Tumor volume (mm^3)=d^2·D/2 where d and D, are the shortest and longest diameter in mm, respectively. After completing the treatment, mice were sacrificed and tumors were extracted, weighed, and fixed for histological analysis.
The therapeutic effect of the subject compounds was then tested by treating mice previously injected subcutaneously with MDA-MB-231 breast cancer cells. […] The dose amount of 100 mg/kg dosage in these cases was administered at a frequency of two injections per week for the total of two weeks of treatment.

The test system of data set [12] is human cancer cell lines (MDA-MB-231, U87-MG, H460) and MCF10. Briefly: Suppression of proliferation of human cancer cell lines, results in words. Format: cell-based. To be noted: summary of Table 3. As for the experimental part:
48 h later cells were fixed with PFA 4% for 15 minutes, stained with 10 μg/ml Hoechst 33342 (Molecular Probes, Thermo Fisher) for 30 minutes and washed twice with PBS. Cells were imaged in a high content screening system (Opera Phoenix™, Perkin Elmer) using a 20× dry objective (30 fields/well). Cell counts were determined by the Opera software (Perkin Elmer) and data were further processed with SPSS software. GI50 was calculated by estimating the absolute IC50 using dose-response inhibition tool in Prism6 (Graphpad Software Inc.).
The cell growth inhibitions of the subject compounds were tested in multiple human cancer cell lines with wild-type Retinoblastoma protein: MDA-MB-231 (breast), U87-MG (glioblastoma), H460 (lung); and MCF10 (as an example of non-transformed human cells) and mutant cells.

Another data set relates to MDA-MB-231 cells. As to the kind of experiment: Senescence assay (β-Galactosidase staining). Format: cell-based, human. To be noted: at GI50; 3 days or 14 days exposure; FIGS. 2 and 3. As for the experimental part: MDA-MB-231 cells were seeded in 6-well plates (65,000 cells/well) and treated with the selected compounds at their respective GI50. At 3, 7 and 14 days after treatment cells were stained with Senescence β-Galactosidase Staining Kit (Cell Signaling) at 37° C. overnight. Blue coloured senescent cells were counted with an optical microscope. Medium and compounds were refreshed every 3 days.
Cell cycle arrest can be irreversible in case of senescence induction.

Where [13] appears, read: Table 3, 48 h, n = 3 independent experiments, read-out: GI50 MDA-MB231.
[14] abbreviates: Table 4, n = 4, read-out: Growth inhibition GI50, Breast cancer pRB Wild-Type MDA-MB-231.
Where [15] appears, read: Table 3, 48 h, n = 3 independent experiments, read-out: GI50 U87MG.
[16] abbreviates: Table 4, n = 4, read-out: Growth inhibition GI50, Glioblastoma pRB Wild-Type U87MG.

T1 sequence (P31749 whole entry, the tested form may be a part): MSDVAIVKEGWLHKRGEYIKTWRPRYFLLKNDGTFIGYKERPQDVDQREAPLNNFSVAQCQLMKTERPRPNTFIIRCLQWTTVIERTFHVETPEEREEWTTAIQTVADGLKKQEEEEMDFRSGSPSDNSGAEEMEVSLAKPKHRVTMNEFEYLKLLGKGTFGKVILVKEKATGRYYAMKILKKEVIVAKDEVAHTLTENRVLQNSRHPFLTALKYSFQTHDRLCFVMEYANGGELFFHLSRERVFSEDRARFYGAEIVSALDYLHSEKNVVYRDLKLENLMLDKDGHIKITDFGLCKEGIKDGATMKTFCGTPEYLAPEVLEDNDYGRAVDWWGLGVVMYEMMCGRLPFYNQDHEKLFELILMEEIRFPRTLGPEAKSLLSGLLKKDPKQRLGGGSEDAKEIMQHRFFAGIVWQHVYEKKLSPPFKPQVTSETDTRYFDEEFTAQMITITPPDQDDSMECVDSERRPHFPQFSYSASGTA
Chain of CDK4/CycD1 (P11802 whole entry): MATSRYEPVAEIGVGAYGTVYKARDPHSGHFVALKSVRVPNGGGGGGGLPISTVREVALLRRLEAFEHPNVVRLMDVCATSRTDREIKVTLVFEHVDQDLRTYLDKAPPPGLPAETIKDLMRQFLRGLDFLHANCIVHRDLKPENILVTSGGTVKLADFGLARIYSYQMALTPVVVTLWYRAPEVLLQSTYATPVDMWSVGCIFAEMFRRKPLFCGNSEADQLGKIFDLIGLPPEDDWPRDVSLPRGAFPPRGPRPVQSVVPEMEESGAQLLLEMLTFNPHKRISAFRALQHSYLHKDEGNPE
Chain of CDK4/CycD1 (P24385 whole entry partner): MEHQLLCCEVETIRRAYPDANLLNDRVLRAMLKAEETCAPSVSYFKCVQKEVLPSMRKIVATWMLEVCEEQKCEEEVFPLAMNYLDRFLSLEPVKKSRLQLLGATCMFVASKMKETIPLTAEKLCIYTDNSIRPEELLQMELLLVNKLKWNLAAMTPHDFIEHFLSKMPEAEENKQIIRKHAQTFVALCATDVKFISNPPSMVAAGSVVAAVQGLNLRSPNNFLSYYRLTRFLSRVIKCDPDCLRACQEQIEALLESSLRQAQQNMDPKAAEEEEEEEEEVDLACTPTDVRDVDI

In general, IC50 refers to the concentration at which inhibition is half-maximal. Low readings indicate greater potency, high ones weaker potency. As a reminder, the GI50 is the concentration that inhibits growth by half. Broadly, the solubility (kinetic) is solubility judged after dilution from a stock solution rather than from solid. The Papp is a coefficient for how fast a substance crosses the barrier. A higher Papp goes with fast passage. For the compound `CC(O)CCC1CCN(c2ccc(Nc3ncc4ccc(=O)n([C@@H]5CC6CCC5C6)c4n3)cc2)CC1` (stereo partly drawn) [PS004, 8-((2R)-bicyclo[2.2.1]heptan-2-yl)-2-((4-(4-(3-hydroxybutyl)piperidin-1-yl)phenyl)amino)pyrido[2,3-d]pyrimidin-7(8H)-one], the IC50 was greater than 50 µM against AKT1 aa1-480 and 35.3 nM at CDK4/CycD1. The GI50 in data set [1] was determined as 1400 nM; in [2], 1430 nM; in data set [3] (setting [13]), 3.6 µM; in [3] (setting [14]), 3.5 µM; in data set [4] (setting [15]) it was 4.5 µM; in [4] (setting [16]), 5.5 µM. The same compound yielded a solubility (kinetic) in data set [5] of less than 1 µM. The microsomal CLint in data set [6] came out at 40.8 µL/min/mg. Further, the half-life is 34 min in data set [6] and 143 min in data set [7]. In addition, the hepatocyte CLint in [7] came out at 9.7 µL/min/1e6 cells. The compound also returned a Papp in data set [8] of less than 0.44 ×10⁻⁶ cm/s. Further, the “kinase affinity profile” value in data set [9] is reported as “affinity not only for CDK4/6 but also for CDK2/9”. Also, the “efficiency in pRB-deficient versus pRB-wild-type glioblastoma cells” value in data set [10] is reported as “more inefficient”. Further, the “phospho-RB levels in the xenografts” value in data set [11] is “reduction of phospho-Rb phosphorylation which however did not reach statistical significance”. Also, the “Ki67 levels in the xenografts” value in data set [11] (FIG. 9B) was “slightly diminished”. Moreover, the tumor weight result in data set [11] is recorded as “significantly reduced”. Besides, the tumor growth entry in [11] is “significantly reduced”. Moreover, in data set [12], the “suppression of cell proliferation” value is “inhibited cell growth with high potential”.
Turning to `CC(O)COC1CCN(c2ccc(Nc3ncc4ccc(=O)n([C@@H]5CC6CCC5C6)c4n3)cc2)CC1` (stereo partly drawn) [PS006, 8-((2R)-bicyclo[2.2.1]heptan-2-yl)-2-((4-(4-(2-hydroxypropoxy)piperidin-1-yl)phenyl)amino)pyrido[2,3-d]pyrimidin-7(8H)-one], the IC50 at AKT1 aa1-480 is greater than 50 µM; on CDK4/CycD1, 18.9 nM. In addition, the concentration for 50% growth inhibition (GI50) in [1] was determined as 190 nM; in [2], 420 nM; in data set [3] (setting [13]) it was 1.4 µM; in data set [3] (setting [14]) it was 1.7 µM; in data set [4] (setting [15]), 2.34 µM; in [4] (setting [16]), 2.2 µM. In data set [5], this compound had a solubility (kinetic) of less than 1 µM. In addition, in data set [6], the microsomal CLint came out at 119 µL/min/mg. For the same compound, the half-life in data set [6] stood at 11.6 min; in [7], 18.3 min. For the same compound, the hepatocyte CLint in [7] was 75.7 µL/min/1e6 cells. In data set [8], this compound displayed a Papp of 4.62 ×10⁻⁶ cm/s. Also, the “affinity for CDK5” value in data set [9] was “presented affinity”. Moreover, the “kinase affinity profile” value in [9] is listed as “high affinity for CDK6/2/5/9”. The “SA-βGAL staining (senescence induction)” value with MDA-MB-231 cells is given as “induced high levels of SA-βGAL staining; also recorded: induced high senescence”. Further, the “efficiency in pRB-deficient versus pRB-wild-type glioblastoma cells” value in [10] is “equally efficient”. Also, the “phospho-RB levels in the xenografts” value in data set [11] was “significantly reduced”. Besides, the tumor weight entry in data set [11] is given as “did not exert any antitumoral effect”. Further, the tumor growth entry in [11] is reported as “did not exert any antitumoral effect”. Besides, the “suppression of cell proliferation” value in data set [12] is recorded as “potent cell growth inhibition”.
Consider `CC(=O)c1c(C)c2cnc(Nc3ccc(N4CCC(CCCO)CC4)cc3)nc2n(C2CCCC2)c1=O` [PS009, 6-acetyl-8-cyclopentyl-2-((4-(4-(3-hydroxypropyl)piperidin-1-yl)phenyl)amino)-5-methylpyrido[2,3-d]pyrimidin-7(8H)-one], for which the IC50 against AKT1 aa1-480 is greater than 50 µM; on CDK4/CycD1 it was 26 nM. Also, the GI50 in [1] amounted to 1550 nM; in data set [2] it was 1170 nM; in [3] (setting [13]) it was 3 µM; in data set [3] (setting [14]), 3.3 µM; in data set [4] (setting [15]) it was 0.9 µM; in data set [4] (setting [16]), 6.9 µM. This compound came in with a kinetic solubility in [5] of less than 1 µM. For the same compound, the microsomal CLint in data set [6] is 33 µL/min/mg. The half-life was 42 min in data set [6] and 20.4 min in data set [7]. Besides, the hepatocyte CLint in [7] came to 67.8 µL/min/1e6 cells. The apparent permeability (Papp) in [8] was less than 0.43 ×10⁻⁶ cm/s. Also, in data set [9], the “additional affinity for CDK1/2” value was “additional affinity”. The “kinase affinity profile” value in data set [9] was “mainly bound to CDK4/6/ with also an interesting preference for CDK2 and CDK9”. Moreover, in the data set with MDA-MB-231 cells, the “SA-βGAL staining (senescence induction)” value is given as “induced high levels of SA-βGAL staining; also recorded: very high SA-BGAL activity induction”. For the same compound, the “efficiency in pRB-deficient versus pRB-wild-type glioblastoma cells” value in [10] is given as “equally efficient”. In addition, in [11], the “phospho-RB levels in the xenografts” value was “reduction of phospho-Rb phosphorylation which however did not reach statistical significance”. Moreover, the tumor weight result in [11] is “did not exert any antitumoral effect”. Also, in data set [11], the tumor growth result is given as “did not exert any antitumoral effect”.
